79 compounds from the RepoRT retention time repository can be followed below.

This data set is described as follows: Agilent ZORBAX 300 SB-C18, 150 × 1 mm, 3.5 µm; A: water + 0.01% heptafluorobutyric acid; B: acetonitrile + 0.01% heptafluorobutyric acid; gradient (min/%B) 0/0 100/90. Conditions: stereoisomer not certain.
As for `O=C1NC(=O)C(c2ccccc2)(c2ccc(O)cc2)N1` (centres undefined), the LC retention time came out at 9.15 min.

Consider `C#CC1(N)CCCCC1`, for which the LC retention time was determined as 7.77 min.

For `c1cc(-c2nn[nH]n2)cc(-n2cccn2)c1`, the LC retention time came to 9.34 min.

Turning to `CNC(C)C(O)c1ccccc1` (centres undefined), the LC retention time stood at 8.37 min.

As for `O=C1CCN(c2ccccc2)N1`, the LC retention time worked out at 9.05 min.

`CCOc1ccc(CCNC(=O)N(c2ccccc2)c2ccccc2)cc1OCC`: the LC retention time is 16 min.

As for `CCCCCCC(C)NCCO` (centres undefined), the LC retention time was 9.31 min.

`CC1NC(=O)N(c2cccc(N)c2)C1=O` (centres undefined): the LC retention time was found to be 7.05 min.

For the compound `Cc1ccc(-c2ccc3ccccc3n2)cc1`, the LC retention time amounted to 13.4 min.

Consider `COc1cc(C)c(NC(C)=O)c(C)c1`, for which the LC retention time was 8.85 min.

Regarding `NCc1ccccc1CN`, the LC retention time was found to be 7.03 min.

As for `O=c1[nH][nH]c(=O)n1-c1ccc2c(c1)OCO2`, the LC retention time was determined as 6.9 min.

On to `Nc1cccc(N2CCOCC2)c1`, for which the LC retention time turned out to be 7.53 min.

With `Cc1ccc(NC(=S)NC2CC(C)(C)NC(C)(C)C2)c(C)c1`, the LC retention time turned out to be 9.61 min.

For the compound `CC1NCCC2(O)CCCCC12` (centres undefined), the LC retention time was 7.09 min.

As for `Cc1ccc(C)n1-c1ccccc1C(=O)O`, the LC retention time was determined as 12.1 min.

For the compound `O=C(CC1NC(=O)N(C2CCCCC2)C1=O)NCCc1c[nH]c2ccccc12` (centres undefined), the LC retention time worked out at 12.1 min.

For `Cn1cccc1C=NNC(=O)CCCC(=O)NN=Cc1cccn1C`, the LC retention time came to 10.2 min.

Consider `Cc1nn(-c2ccc(C(=O)N3CCN(C)CC3)cc2)c(=O)c2ccccc12`, for which the LC retention time was determined as 8.65 min.

Consider `CC(=NNC(=O)C[n+]1ccccc1)c1ccccc1`, for which the LC retention time was determined as 8.76 min.

On to `CC1CCCCN1C(=O)c1cncc(C(=O)N2CCCCC2C)c1` (centres undefined), for which the LC retention time turned out to be 11.3 min.

On to `Cc1cccc(N2CN(Cc3ccccc3)CNC2=S)c1C`, for which the LC retention time stood at 14.1 min.

As to `O=C(O)Cn1c(=O)c(-c2ccccc2)nc2ccccc21`, the LC retention time came to 11.8 min.

For the compound `O=C1OCc2cc(-n3cccc3)ccc21`, the LC retention time is 11.8 min.

On to `Cc1ccc(NC(=O)C(=O)NCCN2CCN(C(=O)c3ccccc3)CC2)cc1`, for which the LC retention time came out at 9.8 min.

For `O=C1CNCC(=O)N1CCc1ccccc1`, the LC retention time was found to be 9.32 min.

In the case of `c1ccc(CN(c2ccccn2)c2ccccn2)cc1`, the LC retention time worked out at 11 min.

For the compound `CC(c1ccccc1)C1Nc2ccccc2C(=O)N1c1ccccc1` (centres undefined), the LC retention time was 15 min.

In the case of `CC1(C)CC(NC(=S)Nc2ccccc2)CC(C)(C)N1`, the LC retention time was found to be 9 min.

For the compound `CC(=O)NC(NC(C)=O)NC(C)=O`, the LC retention time amounted to 1.91 min.

For the compound `CN(C)CCCNCCCN(C)C`, the LC retention time was determined as 7.49 min.

Take `c1ccc2ncncc2c1`: the LC retention time was 7.73 min.

Take `Cc1[nH]c2ccccc2c1CCNC(=O)C1CCCN1C(=O)Nc1ccccc1` (centres undefined): the LC retention time was determined as 12 min.

As for `O=C(CNC(=O)c1ccco1)NN=Cc1ccco1`, the LC retention time turned out to be 8.12 min.

Turning to `O=C(NCCc1ccc2oc3ccccc3c2c1)C1CCCCC1`, the LC retention time amounted to 16.3 min.

Regarding `COc1ccccc1C=NNC(=O)c1ccc(C(C)(C)C)cc1`, the LC retention time came out at 15.3 min.

With `Cc1[nH]c2ccccc2c1C=NNC(N)=S`, the LC retention time stood at 9.71 min.

Consider `CC1(C)CC(=NNC(=O)C(=O)NN=C2CC(C)(C)NC(C)(C)C2)CC(C)(C)N1`, for which the LC retention time was 7.32 min.

Consider `CC1CNCC(C)N1` (centres undefined), for which the LC retention time was 6.7 min.

Regarding `CC(=NNC(=O)c1cc2ccccc2cc1O)c1ccc(-c2ccccc2)cc1`, the LC retention time was 16.3 min.

With `CNCCc1ccncc1`, the LC retention time worked out at 6.72 min.

Regarding `NC(=O)c1ccc(NC(=S)Nc2ccccc2)cc1`, the LC retention time was 9.25 min.

For `COC(C)C(N)=O` (centres undefined), the LC retention time amounted to 2.9 min.

Consider `NC(=O)C(O)c1ccccc1` (centres undefined), for which the LC retention time was determined as 6.19 min.

For the compound `CC(C)(C)c1ccc(C(=O)NN=Cc2cccnc2)cc1`, the LC retention time came to 11.2 min.

Consider `CN(C)CCC=C1c2ccccc2C=Cc2ccccc21`, for which the LC retention time stood at 11.6 min.

On to `O=C(NN=Cc1cccc(O)c1)c1cc2ccccc2cc1O`, for which the LC retention time came out at 12.2 min.

Consider `Cc1ccc(-c2nn[nH]n2)n1C`, for which the LC retention time was 9.09 min.

For `CCc1ncc[nH]1`, the LC retention time came to 6.1 min.

Regarding `Cn1c(=N)n(CC(=O)c2ccccc2)c2ccccc21`, the LC retention time came to 10 min.

Regarding `c1cncc(-c2nnco2)c1`, the LC retention time is 6.78 min.

For `CC(=O)N1CCc2cc(C(=O)O)ccc21`, the LC retention time is 8.48 min.

Consider `CCCCCCCCCCNCCCCCCCCCC`, for which the LC retention time worked out at 17.8 min.

For the compound `Cc1ccc(N2CC(C(=O)O)CC2=O)cc1C` (centres undefined), the LC retention time amounted to 10.2 min.

For the compound `c1cncc(CN=Nc2nc(N3CCCCC3)nc(N3CCCCC3)n2)c1`, the LC retention time came out at 11.5 min.

Regarding `Cc1cccc(CN2CCN(C(=O)CC(C)C)CC2)c1`, the LC retention time was 9.36 min.

On to `O=C(O)c1ccc2c(c1)C1C=CCC1C(c1cccc3ccccc13)N2` (centres undefined), for which the LC retention time amounted to 16.1 min.

Take `CC(=O)N(C)c1ccc(O)cc1`: the LC retention time was 7.68 min.

On to `CN(C)CCC(C)(O)Cc1ccccc1` (centres undefined), for which the LC retention time amounted to 8.38 min.

Turning to `Cc1ccc(C)n1-c1ccc(C(=O)O)cc1`, the LC retention time came to 13 min.

In the case of `O=C(O)CCNc1n[nH]c(=O)[nH]c1=O`, the LC retention time turned out to be 5.51 min.

For the compound `Cc1ccc(C(=O)Cn2c(=N)n(C)c3ccccc32)cc1`, the LC retention time worked out at 10.6 min.

As to `CN1CCN(C(=O)c2cc(C(C)(C)C)cc(C(C)(C)C)c2)CC1`, the LC retention time was 11.6 min.

On to `NCc1ccncc1`, for which the LC retention time was determined as 6.44 min.

In the case of `Oc1ccc(-c2cnc3ccccc3n2)cc1`, the LC retention time was 11.4 min.

For `Cc1ccc(N)c(N)c1`, the LC retention time came to 7.42 min.

For `O=c1cc[nH]c(=O)[nH]1`, the LC retention time came to 1.47 min.

In the case of `C1CCC(OCCN2CCN(CCOC3CCCCC3)CC2)CC1`, the LC retention time was 10.9 min.

`NCCn1cnc2ccccc2c1=O`: the LC retention time was 7.46 min.

For the compound `O=C(Cc1ccccc1)Nc1ccc(-c2nc(-c3ccccc3)c3cc(NC(=O)Cc4ccccc4)ccc3n2)cc1`, the LC retention time came out at 17.8 min.

Take `Cc1cc(C)c2[nH]c3c(c2c1)CCCC3=O`: the LC retention time came out at 14.8 min.

Take `CC1(C)CC(O)N=C1c1ccccc1` (centres undefined): the LC retention time was 8.25 min.

As for `CCN(CC)CCCO`, the LC retention time turned out to be 6.01 min.

In the case of `CC(=O)CNC(C)(C)C`, the LC retention time came to 6.35 min.

As for `O=C1CCCc2c1[nH]c1ccc(C3CCCCC3)cc21`, the LC retention time was found to be 18.7 min.

For `CCC(=O)Nc1ccc(Oc2ccc(NC(=O)CC)c(NC(=O)CC)c2)cc1`, the LC retention time turned out to be 10.5 min.

Regarding `Nc1ncnc(N2CCCc3ccccc32)n1`, the LC retention time is 9.57 min.

`CC1=NC(=O)NC(C2CC=CCC2)C1C(=O)OC(C)C` (centres undefined): the LC retention time came to 12.3 min.

With `Cc1ccc2cc(-c3ccncc3)[nH]c2c1`, the LC retention time came out at 10.2 min.
